Results taken from ChEMBL document CHEMBL1150657, “Assessment of the antiprotozoal activity of Galphimia glauca and the isolation of new nor-secofriedelanes and nor-friedelanes” (J Nat Prod, 2002).

Columns and labels:
KB = test: Cytotoxicity against human KB cells; assay type: cell-based
Plasmodium falciparum = test: Antiprotozoal activity against Plasmodium falciparum K1; assay type: functional, organism-based
[1] = system: Trypanosoma brucei brucei; test: Antitrypanosomal activity against Trypanosoma brucei brucei S427 blood stream trypomastigotes; assay type: functional, organism-based
Leishmania donovani = test: Antileishmanial activity against Leishmania donovani (MHOM/ET/67/L82) promastigotes; assay type: functional, organism-based

Compound	IC50 (Plasmodium falciparum)	IC50 [1]	IC50 (Leishmania donovani)	IC50 (KB)
CCN(CC)CCCC(C)Nc1ccnc2cc(Cl)ccc12 (stereo not drawn) [CHLOROQUINE]				51.4 µg/mL
COc1cc([C@@H]2c3cc4c(cc3[C@H](O)[C@H]3COC(=O)[C@H]23)OCO4)cc(OC)c1OC [PODOFILOX]				0.00621 µg/mL
O=c1c(O)c(-c2ccc(O)c(O)c2)oc2cc(O)cc(O)c12 [QUERCETIN]	6.5 µg/mL	4.5 µg/mL	29.5 µg/mL	136 µg/mL
CC[C@H](/C=C/[C@@H](C)[C@H]1CC[C@H]2[C@@H]3CC=C4C[C@@H](O[C@@H]5O[C@H](CO)[C@@H](O)[C@H](O)[C@H]5O)CC[C@]4(C)[C@H]3CC[C@]12C)C(C)C [STIGMASTEROL GLUCOSIDE]	> 100 µM	> 100 µM	> 100 µM	> 100 µM
CC[C@H](/C=C/[C@@H](C)[C@H]1CC[C@H]2[C@@H]3CC=C4C[C@@H](O)CC[C@]4(C)[C@H]3CC[C@]12C)C(C)C [STIGMASTEROL]	> 100 µM	> 100 µM	> 100 µM	> 100 µM

Further lines, with some results ahead:

IC50 (Plasmodium falciparum)	IC50 [1]	IC50 (Leishmania donovani)	Compound	IC50 (KB)
> 100 µM	> 100 µM	> 100 µM	C=C1C[C@H](C(=O)OC)[C@]2(C)CC[C@]3(C)[C@H]4[C@H](O)[C@@H](O)[C@]5(COC(C)=O)[C@@H](C)[C@@H](OC(C)=O)CC[C@H]5[C@]4(C)CC[C@@]3(O)[C@]2(O)C1 [GALPHIMIDIN]	> 100 µM
> 100 µM	> 100 µM	> 100 µM	C=C1CC[C@]2(C)CC[C@]3(C)[C@H]4[C@H](OC(C)=O)C[C@]5(COC(C)=O)[C@@H](C)OC(=O)[C@H]6O[C@H]6[C@H]5[C@]4(C)CC[C@@]3(C(=O)OC)[C@]2(O)C1 [GALPHIN A]	> 100 µM
> 100 µM	> 100 µM	> 100 µM	C=C1C[C@@H](OC(C)=O)[C@]2(C)CC[C@]3(C)[C@H]4[C@H](OC(C)=O)C[C@]5(COC(C)=O)[C@@H](C)OC(=O)[C@H]6O[C@H]6[C@H]5[C@]4(C)CC[C@@]3(C(=O)OC)[C@]2(O)C1 [GALPHIN B]	> 100 µM
> 100 µM	> 100 µM	> 100 µM	C=C1C[C@@H](OC(C)=O)[C@]2(C)CC[C@]3(C)[C@H]4[C@H](OC(C)=O)C[C@]5(COC(C)=O)[C@@H](C)OC(=O)[C@H]6O[C@H]6[C@H]5[C@]4(C)C[C@H](OC(C)=O)[C@@]3(C(=O)OC)[C@]2(O)C1 [GALPHIN C]	> 100 µM
	0.0006 µg/mL	0.24 µg/mL	N=C(N)c1ccc(OCCCCCOc2ccc(C(=N)N)cc2)cc1 [PENTAMIDINE]	0.11 µg/mL
